Assay results taken from the supplement of paper PMC10307832.

Assays:
Experiment in all cases: relative viability (nuclei count vs DMSO), 5 days (fraction); higher = more cells survive
[1] = compound: C1COCCN1C2=NC(=NC3=C2OC4=C3C=CC=N4)C5=CC(=CC=C5)NC(=O)C6=CN=C(C=C6)N + CCNC(=O)c1noc(-c2cc(C(C)C)c(O)cc2O)c1-c1ccc(CN2CCOCC2)cc1 [Luminespib] (partner 0.01 µM)
In short: (§1)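 Lung cancer cell lines in 1536-well plates were dosed by pin tool the day after seeding, either with one drug alone or with a fixed anchor-drug dose plus five library-drug doses (not always all listed) in √10 steps. After 5 days, cells were fixed and their nuclei stained in one step (final 0.05% Triton X-100, 1% formaldehyde, 1 ug/ml Hoechst), then counted on 4× images. Relative viability is the nuclei count in treated wells divided by that in vehicle wells. Values are medians of duplicate plates.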

[2] = compound: CN1CCC(CNc2ccc3ncc(-c4cccc(OC(F)(F)F)c4)n3n2)CC1 [SGI-1776] + Nc1ncn([C@H]2C[C@H](O)[C@@H](CO)O2)c(=O)n1 [Decitabine] (partner 2 µM)
In short: as §1

[3] = compound: CN1CCC(CNc2ccc3ncc(-c4cccc(OC(F)(F)F)c4)n3n2)CC1 [SGI-1776] + O=C(CCCCCCC(=O)Nc1ccccc1)NO [Vorinostat] (partner 1 µM)
In short: as §1

[4] = compound: Nc1ccccc1NC(=O)c1ccc(CNC(=O)OCc2cccnc2)cc1 [Entinostat] + CC(C)C[C@H](NC(=O)[C@H](Cc1ccccc1)NC(=O)c1cnccn1)B(O)O [Bortezomib] (partner 0.002 µM)
In short: as §1

Cell Line | relative viability ([1]; first compound 0.02 µM) | relative viability ([1]; first compound 0.06325 µM) | relative viability ([1]; first compound 0.2 µM) | relative viability ([1]; first compound 0.6325 µM) | relative viability ([1]; first compound 2 µM) | relative viability ([2]; first compound 0.08 µM) | relative viability ([2]; first compound 0.8 µM) | relative viability ([2]; first compound 2.53 µM) | relative viability ([2]; first compound 8 µM) | relative viability ([3]; first compound 0.08 µM) | relative viability ([3]; first compound 0.8 µM) | relative viability ([3]; first compound 2.53 µM) | relative viability ([3]; first compound 8 µM) | relative viability ([4]; first compound 0.02 µM) | relative viability ([4]; first compound 0.06325 µM) | relative viability ([4]; first compound 0.2 µM) | relative viability ([4]; first compound 0.6325 µM) | relative viability ([4]; first compound 2 µM)
NCI-H1666 | 0.88 | 0.996 | 0.957 | 0.727 | 0.63 | 0.8 | 0.737 | 0.729 | 0.663 | 0.999 | 0.971 | 0.957 | 1.01 | 0.855 | 0.694 | 0.741 | 0.441 | 0.321
NCI-H1734 | 0.169 | 0.197 | 0.204 | 0.182 | 0.156 | 0.517 | 0.499 | 0.567 | 0.486 | 0.809 | 0.913 | 0.801 | 0.662 | 0.895 | 1.1 | 1.06 | 0.753 | 0.472
NCI-H1755 | 0.447 | 0.666 | 0.436 | 0.235 | 0.239 | 0.714 | 0.695 | 0.717 | 0.622 | 0.809 | 0.87 | 0.733 | 0.6 | 0.932 | 0.956 | 0.9 | 0.534 | 0.321
NCI-H1915 | 0.95 | 0.85 | 0.829 | 0.432 | 0.267 | 0.271 | 0.258 | 0.268 | 0.221 | 0.51 | 0.555 | 0.492 | 0.449 | 1.05 | 0.959 | 0.998 | 0.644 | 0.638
NCI-H1975 | 0.157 | 0.148 | 0.202 | 0.29 | 0.3 | 0.43 | 0.391 | 0.431 | 0.377 | 0.745 | 0.725 | 0.683 | 0.589 | 0.355 | 0.309 | 0.271 | 0.182 | 0.163
NCI-H1993 | 0.906 | 0.776 | 0.707 | 0.802 | 0.689 | 0.56 | 0.664 | 0.522 | 0.503 | 1.13 | 0.626 | 0.523 | 0.457 | 1.1 | 1.16 | 1 | 0.723 | 0.543
NCI-H2009 | 1.07 | 1.07 | 0.999 | 1.01 | 0.725 | 0.388 | 0.374 | 0.36 | 0.342 | 0.756 | 0.761 | 0.671 | 0.588 | 1.03 | 1.05 | 0.912 | 0.814 | 0.497
NCI-H2023 | 0.793 | 0.38 | 0.477 | 0.507 | 0.245 | 0.224 | 0.207 | 0.228 | 0.182 | 0.795 | 0.8 | 0.713 | 0.463 | 0.859 | 0.85 | 0.411 | 0.166 | 0.105
NCI-H2085 | 0.386 | 0.46 | 0.402 | 0.372 | 0.327 | 0.549 | 0.505 | 0.606 | 0.556 | 0.841 | 0.865 | 0.763 | 0.753 | 1.03 | 1.12 | 1.04 | 0.683 | 0.604
NCI-H2087 | 0.146 | 0.16 | 0.137 | 0.204 | 0.142 | 0.331 | 0.26 | 0.278 | 0.215 | 0.927 | 0.783 | 0.443 | 0.773 | 0.883 | 0.837 | 0.761 | 0.425 | 0.274
NCI-H2126 | 0.892 | 0.894 | 0.871 | 0.845 | 0.566 | 0.575 | 0.576 | 0.559 | 0.54 | 0.709 | 0.801 | 0.77 | 0.698 | 1.13 | 1.11 | 1.1 | 0.885 | 0.809
NCI-H2347 | 0.37 | 0.283 | 0.341 | 0.342 | 0.315 | 0.631 | 0.673 | 0.639 | 0.577 | 0.598 | 0.622 | 0.588 | 0.496 | 0.969 | 1.01 | 0.557 | 0.318 | 0.262
NCI-H2405 | 0.647 | 0.644 | 0.639 | 0.536 | 0.473 | 0.715 | 0.683 | 0.716 | 0.64 | 1.06 | 1.16 | 0.896 | 0.748 | 1.01 | 1.04 | 0.976 | 0.916 | 0.653
NCI-H3122 | 0.0667 | 0.0713 | 0.0835 | 0.0904 | 0.077 | 0.414 | 0.457 | 0.452 | 0.47 | 1.15 | 0.917 | 1.07 | 1.07 | 0.951 | 1.07 | 1.06 | 0.869 | 1.01
PC-3 [JPC-3] | 0.704 | 0.675 | 0.754 | 0.675 | 0.613 | 0.816 | 0.824 | 0.786 | 0.71 | 0.853 | 1.04 | 0.756 | 0.421 | 0.853 | 0.814 | 0.824 | 0.409 | 0.508
PC-14 | 0.184 | 0.189 | 0.13 | 0.151 | 0.148 | 0.238 | 0.264 | 0.168 | 0.124 | 0.798 | 0.784 | 0.771 | 0.0624 | 0.833 | 0.949 | 0.909 | 0.331 | 0.128
RERF-LC-KJ | 1.22 | 1.3 | 1.02 | 1.38 | 0.633 | 0.67 | 0.652 | 0.566 | 0.363 | 0.694 | 0.745 | 0.686 | 0.48 | 1.06 | 1.21 | 0.998 | 0.643 | 0.417
SK-LU-1 | 0.202 | 0.206 | 0.218 | 0.214 | 0.181 | 0.671 | 0.665 | 0.658 | 0.645 | 0.892 | 0.803 | 0.697 | 0.648 | 1.34 | 1.4 | 0.988 | 0.537 | 0.305
SW 1573 | 0.152 | 0.232 | 0.118 | 0.176 | 0.3 | 0.598 | 0.459 | 0.483 | 0.299 | 1.12 | 0.461 | 0.607 | 0.312 | 1.06 | 1.14 | 1.19 | 0.836 | 0.787
